The text below walks through data of US20050014680A1, “Methods and compositions for enhancing neuron growth and survival” (priority 2003, published 2005).

Where only a bound is given, the exact number is not on record here.

In data set [1] the test system is dissociated E10.5 trigeminal neurons. Description: Survival assay, Tunel staining of low-density dissociated E10.5 trigeminal neurons. Conditions: serum-free medium, 24 hr; 150 nM Kn252a; 100 ng/ml FK506, 1 μg/ml CsA. Format: cell-based, mouse. From the text:
Embryos were obtained from timed pregnancies with the noon of the plug date defined as […]. For whole-mount studies, embryos were processed and stained with anti-Neurofilament antibody (clone 2H3, DSHB) and processed for DAB or fluorescent staining. Sections were stained with anti-NF-M antibody, anti-TAG-1 antibody, anti-Lim1/2, anti-Pax7, anti-Nkx2.2, anti HNF-3b, anti-islet-1 (all from DSHB), Tuj-1 (ABR) and anti-TrkC (Chemicon). Secondary antibodies used were HRP conjugated goat anti-mouse antibody (Jackson Immunoresearch), Alexa-594 and Alexa-488 conjugated goat anti-mouse antibody (Molecular Probes) as well as anti-mouse and anti-rabbit ABC kits (Vector). Tunel assays were performed according to the manufacturer's recommendations (Roche).
Trigeminal ganglia were incubated for 5 minutes at 37° C. with 10 mg/ml trypsin (Sigma)+DNAse (Sigma) in calcium- and magnesium-free (CMF) HBSS. After removal of the trypsin solution, the ganglia were washed 3 times with Hams F12 medium containing 10% heat-inactivated horse serum washed 3 times with CMF-HBSS and were gently triturated in 1 ml CMF-HBSS+DNAse with a fire-polished, siliconised Pasteur pipettes to give a single cell suspension. […]

Data set [2] relates to NFAT-dependent transcription. Description: NFAT-luciferase reporter assay in cortical neurons. Format: cell-based, mouse and rat. Conditions: E15.5 cultured cortical neurons, 100 ng/ml, lysed 18 hrs after stimulation. The procedure:
(§1) The reporter plasmid NFAT-Luciferase and the EGFP-NFATc4 plasmid have been described elsewhere (Graef et al., 1999). The TrkA constructs have been previously described (Ming et al., 1999). For luciferase assays the cells were treated 16 hrs after transfection with 100 ng/ml recombinant BDNF (Gibco) or 100 ng/ml recombinant NGF. For studies with FK506/CsA the cells were preincubated for 10 min with the inhibitors before stimulation and the inhibitors were present during the stimulation. Cells were lysed for luciferase assays 18 hrs after stimulation and luciferase assays performed according to standard protocols. For microscopy, neurons were fixed in 4% formaldehyde/PBS. Co-transfected m yc-epitope tagged Trk-A was visualized by staining with anti-myc antibody (clone 4E10, Pharmingen), followed by Alexa-594 conjugated goat anti-mouse antibody (Molecular Probes).

For data set [3], the system named is NFATc4. Description: Cytoplasmic-to-nuclear translocation of EGFP-NFATc4 in cortical neurons. Format: cell-based, mouse and rat. On the procedure:
as §1

For data set [4], the system named is trigeminal neuron growth cones. Description: Growth cone morphology and collapse, trigeminal explant cubes stained with phalloidin. Format: cell-based, mouse. Conditions: c2/c3/c4 triple mutant ganglia or wild-type ganglia cultured with CsA and FK506, 30 min. On the procedure:
E10.5 trigeminal explants were cultured in either collagen or matrigel (Becton-Dickinson) gels in the presence of NT-3 (Gibco) and NGF (Gibco) as previously described (O'Connor and Tessier-Lavigne, 1999). The explants were then fixed in 4% PFA/PBS and axons were visualized by wholemount immunostaining with the anti-NF-M antibody (O'Connor and Tessier-Lavigne, 1999). For cultures on laminin, eight-well chamber tissue culture slides were coated with poly-L-lysine followed by laminin. Trigeminal ganglia were either dissociated or cut into small cubes and cultured in medium supplemented with NT-3 and NGF. For assessing growth cone morphology cells were fixed with 25% sucrose in 4% PFA/PBS and stained with either Alexa 594-phalloidin (Molecular Probes) alone or plus anti-III β-tubulin antibody (Tuj-1, Covance).

With `COC(=O)[C@@]1(O)C[C@H]2O[C@]1(C)n1c3ccccc3c3c4c(c5c6ccccc6n2c5c31)C(=O)NC4` [Kn252a], in data set [1], the “cell death (Tunel-positive cells)” value was “even greater degree of cell death”.

Turning to “NGF: recombinant NGF, nerve growth factor, a neurotrophin”, in data set [2], the “activation of NFAT-dependent transcription” value is recorded as “did not activate transcription from this reporter unless TrkA was introduced”. In addition, the “nuclear translocation of EGFP-NFATc4, no TrkA transfected” value in data set [3] (E15.5 cortical neurons lacking TrkA (data not shown)) was “did not induce translocation”. Besides, the “nuclear translocation of EGFP-NFATc4, TrkA co-transfected” value in data set [3] (cortical neurons co-transfected with EGFP-NFATc4 and TrkA, 100 ng/ml NGF) is recorded as “led to rapid translocation of EGFP-NFATc4 into the nucleus”.

B1: BDNF: recombinant BDNF (Gibco), a neurotrophin (protein, UniProt P23560 19-247, looked up)
Neurotrophic factor BDNF …: APMKEANIRGQGGLAYPGVRTHGTLESVNGPKAGSRGLTSLADTFEHVIEELLDEDQKVRPNEENNKDADLYTSRVMLSSQVPLEPPLLFLLEEYKNYLDAANMSMRVRRHSDPARRGELSVCDSISEWVTAADKKTAVDMSGGTVTVLEKVPVSKGQLKQYFYETKCNPMGYTKEGCRGIDKRHWNSQCRTTQSYVRALTMDSKKRIGWRFIRIDTSCVCTLTIKRGR
Take B1: the “activation of NFAT-dependent transcription” value in data set [2] is reported as “powerful activator of NFAT-dependent transcription”. In data set [3] (E15.5 cortical neurons, 100 ng/ml BDNF), the “time to nuclear translocation of EGFP-tagged NFATc4” value is listed as at most 30 min.

B2: Sema3A: semaphorin 3-A, induces growth cone collapse (protein, UniProt Q14563 21-771, looked up)
Semaphorin-3A: NYQNGKNNVPRLKLSYKEMLESNNVITFNGLANSSSYHTFLLDEERSRLYVGAKDHIFSFDLVNIKDFQKIVWPVSYTRRDECKWAGKDILKECANFIKVLKAYNQTHLYACGTGAFHPICTYIEIGHHPEDNIFKLENSHFENGRGKSPYDPKLLTASLLIDGELYSGTAADFMGRDFAIFRTLGHHHPIRTEQHDSRWLNDPKFISAHLISESDNPEDDKVYFFFRENAIDGEHSGKATHARIGQICKNDFGGHRSLVNKWTTFLKARLICSVPGPNGIDTHFDELQDVFLMNFKDPKNPVVYGVFTTSSNIFKGSAVCMYSMSDVRRVFLGPYAHRDGPNYQWVPYQGRVPYPRPGTCPSKTFGGFDSTKDLPDDVITFARSHPAMYNPVFPMNNRPIVIKTDVNYQFTQIVVDRVDAEDGQYDVMFIGTDVGTVLKVVSIPKETWYDLEEVLLEEMTVFREPTAISAMELSTKQQQLYIGSTAGVAQLPLHRCDIYGKACAECCLARDPYCAWDGSACSRYFPTAKRRTRRQDIRNGDPLTHCSDLHHDNHHGHSPEERIIYGVENSSTFLECSPKSQRALVYWQFQRRNEERKEEIRVDDHIIRTDQGLLLRSLQQKDSGNYLCHAVEHGFIQTLLKVTLEVIDTEHLEELLHKDDDGDGSKTKEMSNSMTPSQKVWYRDFMQLINHPNLNTMDEFCEQVWKRDRKQRRQRPGHTPGNSNKWKHLQENKKGRNRRTHEFERAPRSV
Take B2: the “collapse of growth cones on matrigel” value in data set [4] was “induced efficient collapse of growth cones”.
